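These data come from cells grown in 96-well plates and exposed to compound for 48 hours at five concentrations. Here, GI50 denotes the concentration required for 50% inhibition of growth. Definition used: TGI = concentration required for complete inhibition of growth.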
Tests used:
Assay in all cases: DTP human tumour cell line panel, 48 h
A498 renal = tested on: A498 renal
KM12 colon = tested on: KM12 colon
A549 NSCLC = tested on: A549 NSCLC
OVCAR-8 ovarian = tested on: OVCAR-8 ovarian
SK-MEL-5 melanoma = tested on: SK-MEL-5 melanoma
MOLT-4 leukemia = tested on: MOLT-4 leukemia
K-562 leukemia = tested on: K-562 leukemia
U251 CNS = tested on: U251 CNS
SF-268 CNS = tested on: SF-268 CNS
NCI-H226 lung = tested on: NCI-H226 lung

SMILES | GI50 (A498 renal) [µM] | TGI (A498 renal) [µM] | GI50 (KM12 colon) [µM] | TGI (KM12 colon) [µM] | GI50 (A549 NSCLC) [µM] | TGI (A549 NSCLC) [µM] | GI50 (OVCAR-8 ovarian) [µM] | TGI (OVCAR-8 ovarian) [µM] | GI50 (SK-MEL-5 melanoma) [µM] | TGI (SK-MEL-5 melanoma) [µM] | GI50 (MOLT-4 leukemia) [µM] | TGI (MOLT-4 leukemia) [µM] | GI50 (K-562 leukemia) [µM] | TGI (K-562 leukemia) [µM] | GI50 (U251 CNS) [µM] | TGI (U251 CNS) [µM] | GI50 (SF-268 CNS) [µM] | TGI (SF-268 CNS) [µM] | GI50 (NCI-H226 lung) [µM] | TGI (NCI-H226 lung) [µM]
C=CC(=O)NCCOc1cccc(Nc2cc(NCCCNC(=O)C3CCC3)c(Br)cn2)c1 | 0.52 | 1.8 | 0.954 | > 25 | 0.881 | 14.7 | 1.82 | > 25 | 1.39 | 5.24 | 1.37 | > 25 | 1.16 | > 25 | 0.851 | 18.7 | 0.482 | 3.73 | 0.613 | > 25
O=C(O)c1c([N+](=O)[O-])cc(C(F)(F)F)cc1[N+](=O)[O-] | – | > 100 | – | > 100 | – | > 100 | – | > 100 | – | > 100 | – | > 100 | – | > 100 | – | > 100 | – | > 100 | – | > 100
CC(C)(C)OC(=O)N1CC(Cn2cc(C(F)(F)F)c3c(Cl)ncnc32)C1 | 4.81 | 16.8 | 2.34 | 5.35 | 14 | 28.2 | 1.84 | 3.58 | 1.79 | 3.21 | 2.39 | 6.28 | 2.81 | > 100 | 1.79 | 3.26 | 1.75 | 3.4 | 18.9 | 41.9
CNS(=O)(=O)c1ccccc1C(=N)c1ccccc1 | – | > 100 | – | > 100 | – | > 100 | – | > 100 | – | > 100 | – | > 100 | – | > 100 | – | > 100 | – | > 100 | – | > 100
COc1cc(CNc2nc3cc(N)cc(N)c3nc2-c2ccccc2)cc(OC)c1OC | 6.34 | 14.7 | 0.478 | 10.2 | 4.28 | 33.1 | 7 | 14.8 | 0.721 | 7.79 | 12.4 | > 50 | 1.76 | > 50 | 1.73 | 6.25 | 2.93 | 14 | 9.96 | 22.4
O=S(=O)(CC#CCCCOCC#Cc1ccccc1C#CCS(=O)(=O)c1ccccc1)c1ccccc1 | > 100 | > 100 | 33.2 | > 100 | 33.6 | > 100 | 16.1 | 42 | 15.3 | 31.8 | 2.61 | 5.9 | 15.9 | 39.6 | 20.5 | 41 | 19.6 | 50.1 | 16.6 | 45.7
COc1cc(-c2cc(-c3nc4cc(Cl)c(Cl)cc4[nH]3)[nH]n2)cc(OC)c1OC | 4.21 | 28.3 | 3.56 | 13.9 | 2.87 | 10.5 | 2.51 | 7.48 | 1.56 | 3.24 | 2.49 | 6.29 | 3.3 | 24.9 | 2.96 | 11 | 3.95 | 14.9 | 2.29 | 8.8
O=[N+]([O-])c1cccc(/C=C/c2ccccn2)c1 | 7.19 | > 100 | 24.2 | > 100 | 27.9 | > 100 | 45 | > 100 | 28.7 | > 100 | > 100 | > 100 | 41.2 | > 100 | 6.68 | > 100 | 24.7 | > 100 | 33.5 | > 100
C/C(=C1/N=C(c2ccccc2)OC1=O)c1ccc(C)cc1 | – | > 100 | – | > 100 | – | > 100 | – | > 100 | – | > 100 | – | > 100 | – | > 100 | – | > 100 | – | > 100 | – | > 100
COc1cc2cn3c4ccc(O)cc4nc(N)c3c2cc1OC | 0.141 | 1.06 | 0.885 | 4.48 | 0.839 | 12.9 | 0.773 | 12.6 | 0.0734 | 0.505 | 0.483 | 4.33 | 0.0348 | 3.6 | 0.11 | 8.32 | 0.149 | 15.1 | 0.201 | 3.54
COc1cc(/C=C/C(=O)NC[C@]2(O)CCC3C4CCc5cc(O)ccc5C4CCC32C)ccc1O (stereo partly drawn) | 74.1 | > 100 | 5.68 | 36 | 7.64 | > 100 | 23.8 | > 100 | 2.91 | 19.3 | 3.9 | 32.7 | 3.74 | 28.4 | 8.47 | > 100 | 96.1 | > 100 | 35.1 | > 100
CCCCNC(=O)OCC(COc1ccccc1OC)OC(=O)NCCCC (stereo not drawn) | – | > 100 | – | > 100 | – | > 100 | – | > 100 | – | > 100 | – | > 100 | – | > 100 | – | > 100 | – | > 100 | – | > 100
Cc1cc(S(N)(=O)=O)c(S/C(=N\Nc2ccc([N+](=O)[O-])cc2)c2ccc(O)cc2)cc1Cl | 7.56 | 20.5 | 1.96 | 4.14 | 4.06 | 29.6 | 5.72 | 21.7 | 1.86 | 3.38 | 2.97 | > 100 | 2.7 | > 100 | 2.87 | 11.1 | 2.22 | 8.19 | 2.67 | 7.08
COc1cccc2c1C(=O)c1c(O)c3c(c(O)c1C2=O)C[C@@](O)(C(=O)CO)C[C@@H]3OC1CC(OC(C)=O)C(OC(C)=O)C(C)O1 (stereo partly drawn) | 0.127 | 1.62 | 0.549 | 3.74 | 0.41 | 2.77 | 0.479 | > 58.1 | 0.249 | 1.67 | < 0.0282 | – | 0.868 | – | 0.275 | 7.93 | 0.287 | 4.46 | 0.193 | 1.16

Reference: PubChem BioAssay (NCI)
